Experimental data taken from patent US20070027136A1, “Formulations of anthraquinone derivatives” (priority 2003, published 2007).

Test: AQMN content before and after freeze drying
Type: physicochemical
Details: 40 mg/ml, 10 mM sodium phosphate buffer pH 7.0
Procedure: Formulated AQ4N material was prepared at 40 mg/ml in 10 mM sodium phosphate buffer at pH 7.0. A portion of this solution was filled into ampoules and the remained into vials and freeze dried according to the cycle as specified in Tables 9 and 10.
The AQMN content of the samples before and after freeze drying (ampoule fill and vial fill, respectively) were measured as shown in Table 11.

SMILES: C[N+](C)([O-])CCNc1ccc(NCC[N+](C)(C)[O-])c2c1C(=O)c1c(O)ccc(O)c1C2=O [AQ4N raw material]
- AQMN content (% peak area w.r.t. std.): 22.6%
